6 compounds from patent US11401278B2, “Macrocyclic indole derivatives” (The Broad Institute, Inc., priority 2017, dated 2022) can be followed below.

For one data set, the target named is MCL-1 (Homo sapiens (Human), UniProt Q07820, K194A/K197A/R201A). Nature of the data set: Protein-protein interaction assay MCL-1/Noxa BH3 peptide (MCL-1 assay, TR-FRET). It is filed as binding. Conditions: MBP-MCL-1 / Noxa BH3 peptide, median. An outline of the steps: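 MBP-fused MCL-1 (aa 173-329, 1 nM) was pre-incubated with compound for 10 min at 22° C, then biotinylated Noxa BH3 peptide (1 nM) was added with anti-MBP-Eu cryptate and streptavidin-XL665. Incubation was 1 h at 22° C, then overnight at 4° C, in Tris pH 7 buffer. The 665/620 nm ratio over 11 concentrations (0.1 nM-20 μM) gave IC50 by 4-parameter fit.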
In general terms: TR-FRET usually uses a lanthanide donor and a delayed reading to cut background.

The next data set has as its system SUDHL5. Nature of the data set: Induction of cytotoxicity (Assay 6), SUDHL5. Conditions: read-out: Cytotox SUDHL5 [M] (median) IC50, CellTiter-Glo, 5 hours, SUDHL5. In general terms: In ATP-based viability assays light output follows the ATP content of the culture.

Structures can show the parent of a compound that is named as a salt. Where two headings read alike, the source gives them in different places.

Chain of MCL-1 (Q07820 whole entry K194A/K197A/R201A, looked up, the tested form may be a part): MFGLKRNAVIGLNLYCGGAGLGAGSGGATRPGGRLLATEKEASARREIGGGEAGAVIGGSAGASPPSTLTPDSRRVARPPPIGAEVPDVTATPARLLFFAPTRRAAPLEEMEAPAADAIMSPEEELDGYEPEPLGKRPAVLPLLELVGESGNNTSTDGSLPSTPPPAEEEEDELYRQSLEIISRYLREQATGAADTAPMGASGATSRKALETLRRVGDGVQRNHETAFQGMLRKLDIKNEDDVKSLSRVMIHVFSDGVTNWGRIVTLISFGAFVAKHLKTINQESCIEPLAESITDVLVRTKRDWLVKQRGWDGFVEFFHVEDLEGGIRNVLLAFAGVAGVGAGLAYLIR

For the compound `CCc1c2c(nn1C)CN(CCCN1CCCC1)S(=O)(=O)CCCn1c(C(=O)O)c(CCCOc3cccc4ccccc34)c3cccc-2c31` (racemic) [Example 16, (rac)-12-Ethyl-11-methyl-1-(3-(naphthalen-1-yloxy)propyl)-8-(3-(pyrrolidin-1-yl)propyl)-5,6,9,11-tetrahydro-4H,8H-pyrazolo[3′,4′:4,5][1]thia[2,8]diazacycloundecino[6,7,8-hi]indole-2-carboxylic acid 7,7-dioxide], the half-maximal inhibitory concentration (IC50) is 5.7 nM against MCL-1 and 3.2e-05 M in the data set with SUDHL5 (Homo sapiens, SU-DHL-5, 5 h). Take `CCc1c2c(nn1C)CN(C)S(=O)(=O)CCCn1c(C(=O)O)c(CCCOc3cccc4cc(F)ccc34)c3ccc(Cl)c-2c31` (single isomer, unassigned; enantiomer 2) [Example 37, (−)-4-chloro-3-ethyl-7-{3-[(6-fluoronaphthalen-1-yl)oxy]propyl}-2,14-dimethyl-13,13-dioxo-10,11,12,13,14,15-hexahydro-2H-13lambda^6-pyrazolo[3′,4′:4,5][1,2,8]thiadiazacycloundecino-[6,7,8-hi]indole-8-carboxylic acid (Enantiomer 2)]: the results for the IC50 against MCL-1 and with SUDHL5 were 11 nM and 5.7e-06 M, respectively.

With `Cc1c2c(nn1C)CN(C1CC1)S(=O)(=O)CCCn1c(C(=O)O)c(CCCOc3cccc4ccccc34)c3ccc(Cl)c-2c31` [Example 40, (rac)-4-chloro-14-cyclopropyl-2,3-dimethyl-7-[3-(1-naphthyloxy)propyl]-11,12,14,15-tetrahydro-2H,10H-pyrazolo[3′,4′:4,5][1,2,8]thiadiazacycloundecino[6,7,8-hi]indole-8-carboxylic acid 13,13-dioxide], the IC50 came to 2.1 nM against MCL-1 and 2e-06 M in the data set with SUDHL5. For `CCc1c2c(nn1C)C(CCC1CCOCC1)N(C)S(=O)(=O)CCCn1c(C(=O)O)c(CCCOc3cccc4cc(F)ccc34)c3ccc(Cl)c-2c31` (racemic) [Example 60, (rac)-4-chloro-3-ethyl-7-{3-[(6-fluoro-1-naphthyl)oxy]propyl}-2,14-dimethyl-15-[2-(tetrahydro-2H-pyran-4-yl)ethyl]-11,12,14,15-tetrahydro-2H,10H-pyrazolo[3′,4′:4,5][1,2,8]thiadiazacycloundecino[6,7,8-hi]indole-8-carboxylic acid 13,13-dioxide (Racemate 1)], in that order: 2.4 nM and 2.8e-08 M. `CCc1c2c(nn1C)C(CCN1CCOCC1)N(C)S(=O)(=O)CCCn1c(C(=O)O)c(CCCOc3cccc4cc(F)ccc34)c3ccc(Cl)c-2c31` (racemic) [Example 73, (rac)-(4-chloro-3-ethyl-7-{3-[(6-fluoronaphthalen-1-yl)oxy]propyl}-2,14-dimethyl-15-[2-(morpholin-4-yl)ethyl]-13,13-dioxo-10,11,12,13,14,15-hexahydro-2H-13lambda^6-pyrazolo[3′,4′:4,5][1,2,8]thiadiazacycloundecino[6,7,8-hi]indole-8-carboxylic acid (Racemate 1)] registered an IC50 at MCL-1 of 0.34 nM. For `Cc1c2c(nn1C)C(CCN1CCOCC1)N(C)S(=O)(=O)CCCn1c(C(=O)O)c(CCCOc3cccc4ccccc34)c3cccc-2c31` (single isomer, unassigned; enantiomer 2) [Example 46, 2,3,14-trimethyl-15-[2-(morpholin-4-yl)ethyl]-7-{3-[(naphthalen-1-yl)oxy]propyl}-13,13-dioxo-10,11,12,13,14,15-hexahydro-2H-13lambda^6-pyrazolo[3′,4′:4,5][1,2,8]thiadiazacycloundecino[6,7,8-hi]indole-8-carboxylic acid N-ethylethanamine Salt (Enantiomer 2)], the IC50 came to 0.31 nM on MCL-1 and 5e-07 M in the data set with SUDHL5.

A word on the IC50: it is the point on the concentration scale where inhibition reaches its midpoint.
